Experiments:
Assay in all cases: Radiolabeled ATP kinase assay, panel of 60 kinases (Table S5)
Assay type in all cases: biochemical
[1] = biological target: T1, panel of 60 human kinases (Homo sapiens, UniProt P49840); conditions: GSK3a; 0.1 μM; 10 μM ATP; read-out: % Enzyme Activity (relative to DSMO controls)
T1 construct: purchased Reaction Biology Corp
Procedure: (§1) To better understand the biologically relevant targets of compound 1 and its analogs, a second round of cell-free kinase assays was performed. In this expanded assay, we selected ten analogs ranging from moderately to very strongly protective in the CPA assay. These analogs were evaluated for their ability to inhibit a selection of 60 kinases at 0.1 μM and 0.5 μM. […] RNAseq data were used to confirm the expression of each kinase in ES MNs (see Example 12).
(§2) RNAseq data were used to confirm the expression of each kinase in ES motor neurons (see Example 12).

[2] = biological target: T2, panel of 60 human kinases (Homo sapiens, UniProt Q00537); conditions: CDK17/cyclin Y (PCTK2); 0.1 μM; 10 μM ATP; read-out: % Enzyme Activity (relative to DSMO controls)
T2 construct: purchased Reaction Biology Corp
T2 sequence (Q00537 whole entry): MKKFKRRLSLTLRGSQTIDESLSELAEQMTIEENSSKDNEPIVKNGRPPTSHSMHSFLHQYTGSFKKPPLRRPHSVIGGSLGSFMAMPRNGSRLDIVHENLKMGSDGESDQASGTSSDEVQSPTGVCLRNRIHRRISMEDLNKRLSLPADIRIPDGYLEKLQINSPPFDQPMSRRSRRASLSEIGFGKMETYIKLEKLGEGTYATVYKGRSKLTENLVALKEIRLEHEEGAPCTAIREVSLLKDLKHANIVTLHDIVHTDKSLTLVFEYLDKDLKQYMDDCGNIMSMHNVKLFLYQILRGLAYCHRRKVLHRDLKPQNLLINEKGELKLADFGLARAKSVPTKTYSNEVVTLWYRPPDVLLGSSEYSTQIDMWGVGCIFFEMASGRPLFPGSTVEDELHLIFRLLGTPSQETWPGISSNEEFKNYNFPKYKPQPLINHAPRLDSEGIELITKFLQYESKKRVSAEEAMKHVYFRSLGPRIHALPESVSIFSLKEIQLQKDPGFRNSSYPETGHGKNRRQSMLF
Procedure: as §1, §2

[3] = biological target: T3, panel of 60 human kinases (Homo sapiens, UniProt Q92630); conditions: DYRK2; 0.1 μM; 10 μM ATP; read-out: % Enzyme Activity (relative to DSMO controls)
T3 construct: purchased Reaction Biology Corp
T3 sequence (Q92630 1-601): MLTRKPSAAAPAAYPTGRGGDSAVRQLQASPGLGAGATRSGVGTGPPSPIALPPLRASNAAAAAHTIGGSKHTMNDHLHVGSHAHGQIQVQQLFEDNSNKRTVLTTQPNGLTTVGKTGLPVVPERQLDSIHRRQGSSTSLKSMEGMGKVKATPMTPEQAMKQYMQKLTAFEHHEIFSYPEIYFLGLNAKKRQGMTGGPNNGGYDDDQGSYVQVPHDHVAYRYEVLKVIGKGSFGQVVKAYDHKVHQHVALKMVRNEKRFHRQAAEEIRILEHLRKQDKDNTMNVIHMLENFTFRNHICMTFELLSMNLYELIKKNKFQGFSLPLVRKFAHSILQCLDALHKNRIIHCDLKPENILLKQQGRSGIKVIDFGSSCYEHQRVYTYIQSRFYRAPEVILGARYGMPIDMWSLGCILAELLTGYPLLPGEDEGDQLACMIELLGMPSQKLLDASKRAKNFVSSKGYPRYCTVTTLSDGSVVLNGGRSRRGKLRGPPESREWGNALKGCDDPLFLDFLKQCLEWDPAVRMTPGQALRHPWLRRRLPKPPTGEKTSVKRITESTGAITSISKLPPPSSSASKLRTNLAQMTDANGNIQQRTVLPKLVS
Procedure: as §1, §2

[4] = biological target: T4, panel of 60 human kinases (Homo sapiens, UniProt Q92918); conditions: HPK1/MAP4K1; 0.1 μM; 10 μM ATP; read-out: % Enzyme Activity (relative to DSMO controls)
T4 construct: purchased Reaction Biology Corp
T4 sequence (Q92918 whole entry): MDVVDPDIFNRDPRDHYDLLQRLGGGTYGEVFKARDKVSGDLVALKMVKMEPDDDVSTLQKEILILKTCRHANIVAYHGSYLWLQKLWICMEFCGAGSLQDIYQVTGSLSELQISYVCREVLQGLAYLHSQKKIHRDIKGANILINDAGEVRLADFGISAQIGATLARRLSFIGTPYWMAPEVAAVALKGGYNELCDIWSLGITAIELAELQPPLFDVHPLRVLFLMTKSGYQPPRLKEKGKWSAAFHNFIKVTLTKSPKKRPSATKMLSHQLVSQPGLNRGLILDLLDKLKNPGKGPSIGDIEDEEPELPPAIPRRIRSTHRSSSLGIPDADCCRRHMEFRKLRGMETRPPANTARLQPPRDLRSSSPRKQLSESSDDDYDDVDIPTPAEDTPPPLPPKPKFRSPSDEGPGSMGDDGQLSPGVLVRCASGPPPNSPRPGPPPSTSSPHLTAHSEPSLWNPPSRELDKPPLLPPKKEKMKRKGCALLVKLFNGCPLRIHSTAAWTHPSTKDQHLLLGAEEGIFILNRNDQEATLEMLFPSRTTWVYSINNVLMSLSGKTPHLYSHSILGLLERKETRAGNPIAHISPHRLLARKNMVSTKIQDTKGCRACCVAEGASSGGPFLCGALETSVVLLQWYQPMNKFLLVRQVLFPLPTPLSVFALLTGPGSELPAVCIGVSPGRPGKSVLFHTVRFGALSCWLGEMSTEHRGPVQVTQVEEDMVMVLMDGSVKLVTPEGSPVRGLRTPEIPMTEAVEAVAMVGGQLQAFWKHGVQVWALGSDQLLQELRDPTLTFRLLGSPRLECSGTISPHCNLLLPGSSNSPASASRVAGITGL
Procedure: as §1, §2

[5] = biological target: T5, panel of 60 human kinases (Homo sapiens, UniProt Q99683); conditions: ASK1/MAP3K5; 0.1 μM; 10 μM ATP; read-out: % Enzyme Activity (relative to DSMO controls)
T5 construct: purchased Reaction Biology Corp
T5 sequence (Q99683 1-1374): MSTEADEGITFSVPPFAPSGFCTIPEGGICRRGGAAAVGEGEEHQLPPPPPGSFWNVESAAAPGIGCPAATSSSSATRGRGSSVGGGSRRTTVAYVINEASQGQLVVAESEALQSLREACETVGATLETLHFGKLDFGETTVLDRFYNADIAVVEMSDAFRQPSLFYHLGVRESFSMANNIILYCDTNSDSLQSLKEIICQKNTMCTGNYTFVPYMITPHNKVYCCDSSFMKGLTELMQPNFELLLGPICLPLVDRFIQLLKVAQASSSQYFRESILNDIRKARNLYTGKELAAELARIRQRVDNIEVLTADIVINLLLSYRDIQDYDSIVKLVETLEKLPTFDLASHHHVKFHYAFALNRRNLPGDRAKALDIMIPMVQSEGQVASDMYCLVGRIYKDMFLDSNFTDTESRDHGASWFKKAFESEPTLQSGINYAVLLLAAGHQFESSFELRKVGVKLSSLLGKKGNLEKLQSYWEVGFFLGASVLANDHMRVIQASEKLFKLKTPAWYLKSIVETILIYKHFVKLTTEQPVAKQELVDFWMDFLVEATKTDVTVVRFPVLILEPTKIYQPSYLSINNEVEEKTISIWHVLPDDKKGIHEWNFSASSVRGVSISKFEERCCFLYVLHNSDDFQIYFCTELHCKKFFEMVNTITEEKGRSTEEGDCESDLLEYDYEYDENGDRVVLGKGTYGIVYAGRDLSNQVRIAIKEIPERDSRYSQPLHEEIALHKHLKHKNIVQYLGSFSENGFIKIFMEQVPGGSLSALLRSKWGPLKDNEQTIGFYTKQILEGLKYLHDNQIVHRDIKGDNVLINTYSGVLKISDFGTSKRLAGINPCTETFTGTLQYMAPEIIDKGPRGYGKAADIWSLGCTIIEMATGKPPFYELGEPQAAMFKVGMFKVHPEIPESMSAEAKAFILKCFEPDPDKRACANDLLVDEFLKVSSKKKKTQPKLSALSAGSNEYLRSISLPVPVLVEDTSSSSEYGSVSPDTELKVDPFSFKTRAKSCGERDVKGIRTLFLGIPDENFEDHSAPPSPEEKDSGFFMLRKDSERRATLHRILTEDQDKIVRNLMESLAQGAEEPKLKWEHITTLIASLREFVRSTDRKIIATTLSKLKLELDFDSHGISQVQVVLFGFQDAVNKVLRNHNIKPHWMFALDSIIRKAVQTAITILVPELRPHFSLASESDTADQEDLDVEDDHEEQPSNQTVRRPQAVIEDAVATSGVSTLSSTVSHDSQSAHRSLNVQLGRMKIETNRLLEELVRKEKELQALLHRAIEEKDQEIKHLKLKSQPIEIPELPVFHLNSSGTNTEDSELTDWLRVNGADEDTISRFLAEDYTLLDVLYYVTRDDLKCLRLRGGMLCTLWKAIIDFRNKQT
Procedure: as §1, §2

[6] = biological target: T6, panel of 60 human kinases (Homo sapiens, UniProt Q9UQB9); conditions: Aurora C; 0.1 μM; 10 μM ATP; read-out: % Enzyme Activity (relative to DSMO controls)
T6 construct: purchased Reaction Biology Corp
T6 sequence (Q9UQB9 1-309): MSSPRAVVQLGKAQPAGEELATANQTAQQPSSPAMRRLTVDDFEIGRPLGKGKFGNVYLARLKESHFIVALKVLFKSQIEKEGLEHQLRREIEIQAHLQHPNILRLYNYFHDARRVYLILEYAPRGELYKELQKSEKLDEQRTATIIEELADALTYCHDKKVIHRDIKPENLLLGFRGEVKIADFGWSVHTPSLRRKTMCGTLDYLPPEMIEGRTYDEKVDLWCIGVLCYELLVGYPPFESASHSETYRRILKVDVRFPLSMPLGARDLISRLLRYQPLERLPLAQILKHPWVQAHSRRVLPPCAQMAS
Procedure: as §1, §2

T1 sequence (P49840 whole entry): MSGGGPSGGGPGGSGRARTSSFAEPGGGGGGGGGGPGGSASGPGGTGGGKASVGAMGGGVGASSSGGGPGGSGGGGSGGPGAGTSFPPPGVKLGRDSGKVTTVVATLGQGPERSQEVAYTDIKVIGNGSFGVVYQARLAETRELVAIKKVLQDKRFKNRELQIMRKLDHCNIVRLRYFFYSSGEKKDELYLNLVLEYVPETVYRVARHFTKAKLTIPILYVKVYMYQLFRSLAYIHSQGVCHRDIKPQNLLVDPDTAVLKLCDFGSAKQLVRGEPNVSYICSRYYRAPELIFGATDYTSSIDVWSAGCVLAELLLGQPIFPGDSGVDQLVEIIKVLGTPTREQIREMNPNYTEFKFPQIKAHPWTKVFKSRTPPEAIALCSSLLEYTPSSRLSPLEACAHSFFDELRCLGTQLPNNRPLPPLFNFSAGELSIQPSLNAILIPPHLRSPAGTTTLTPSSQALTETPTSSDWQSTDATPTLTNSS

CN1CCN(Cc2ccc(-c3cnc4[nH]cc(-c5ccc6[nH]ccc6c5)c4c3)cc2)CC1 [Compound 1, 3-(1H-Indol-5-yl)-5-(4-((4-methylpiperazin-1-yl)methyl)phenyl)-1H-pyrrolo[2,3-b]pyridine, reference compound]
remaining activity at 0.1 µM [1]: 90.8% | remaining activity at 0.1 µM [2]: 66.1% | remaining activity at 0.1 µM [3]: 44% | remaining activity at 0.1 µM [4]: 24% | remaining activity at 0.1 µM [5]: 90.8% | remaining activity at 0.1 µM [6]: 82.8%

CN1CCN(Cc2ccc(-c3cnc4[nH]cc(-c5cccc(Cl)c5)c4c3)cc2)CC1 [Compound 7ad, 3-(3-Chlorophenyl)-5-(4-((4-methylpiperazin-1-yl)methyl)phenyl)-1H-pyrrolo[2,3-b]pyridine]
remaining activity at 0.1 µM [1]: 97.1% | remaining activity at 0.1 µM [2]: 70.4% | remaining activity at 0.1 µM [3]: 69.7% | remaining activity at 0.1 µM [4]: 62.5% | remaining activity at 0.1 µM [5]: 95.4% | remaining activity at 0.1 µM [6]: 104%

CN1CCN(Cc2ccc(-c3cnc4[nH]cc(-c5cnn(Cc6ccccc6)c5)c4c3)cc2)CC1 [Compound 7ah, 3-(1-Benzyl-1H-pyrazol-4-yl)-5-(4-((4-methylpiperazin-1-yl)methyl)phenyl)-1H-pyrrolo[2,3-b]pyridine]
remaining activity at 0.1 µM [1]: 32.5% | remaining activity at 0.1 µM [2]: 7.55% | remaining activity at 0.1 µM [3]: 59.3% | remaining activity at 0.1 µM [4]: 17.8% | remaining activity at 0.1 µM [5]: 95.6% | remaining activity at 0.1 µM [6]: 78.5%

Cc1nn(C)c(C)c1-c1c[nH]c2ncc(-c3ccc(CN4CCN(C)CC4)cc3)cc12 [Compound 7ai, 5-(4-((4-Methylpiperazin-1-yl)methyl)phenyl)-3-(1,3,5-trimethyl-1H-pyrazol-4-yl)-1H-pyrrolo[2,3-b]pyridine]
remaining activity at 0.1 µM [1]: 84.7% | remaining activity at 0.1 µM [2]: 69.4% | remaining activity at 0.1 µM [3]: 66.5% | remaining activity at 0.1 µM [4]: 67.8% | remaining activity at 0.1 µM [5]: 96.2% | remaining activity at 0.1 µM [6]: 122%

CN1CCN(Cc2ccc(-c3cnc4[nH]cc(-c5ccccc5Cl)c4c3)cc2)CC1 [Compound 7as, 3-(2-Chlorophenyl)-5-(4-((4-methylpiperazin-1-yl)methyl)phenyl)-1H-pyrrolo[2,3-b]pyridine]
remaining activity at 0.1 µM [1]: 96% | remaining activity at 0.1 µM [2]: 44.1% | remaining activity at 0.1 µM [3]: 18.2% | remaining activity at 0.1 µM [4]: 19.5% | remaining activity at 0.1 µM [5]: 87.6% | remaining activity at 0.1 µM [6]: 94.2%

COc1ccccc1-c1c[nH]c2ncc(-c3ccc(CN4CCN(C)CC4)cc3)cc12 [Compound 7at, 3-(2-Methoxyphenyl)-5-(4-((4-methylpiperazin-1-yl)methyl)phenyl)-1H-pyrrolo[2,3-b]pyridine]
remaining activity at 0.1 µM [1]: 82.8% | remaining activity at 0.1 µM [2]: 69.7% | remaining activity at 0.1 µM [3]: 96.8% | remaining activity at 0.1 µM [4]: 55.6% | remaining activity at 0.1 µM [5]: 96.3% | remaining activity at 0.1 µM [6]: 107%

CN1CCN(Cc2ccc(-c3cnc4[nH]cc(-c5ccc6c(c5)OCCO6)c4c3)cc2)CC1 [Compound 7d, 3-(2,3-Dihydrobenzo[b][1,4]dioxin-6-yl)-5-(4-((4-methylpiperazin-1-yl)methyl)phenyl)-1H-pyrrolo[2,3-b]pyridine]
remaining activity at 0.1 µM [1]: 13.6% | remaining activity at 0.1 µM [2]: 41.1% | remaining activity at 0.1 µM [3]: 8.19% | remaining activity at 0.1 µM [4]: 11.3% | remaining activity at 0.1 µM [5]: 80.2% | remaining activity at 0.1 µM [6]: 92.3%

CN1CCN(Cc2ccc(-c3cnc4[nH]cc(-c5ccncc5)c4c3)cc2)CC1 [Compound 7n, 5-(4-((4-Methylpiperazin-1-yl)methyl)phenyl)-3-(pyridin-4-yl)-1H-pyrrolo[2,3-b]pyridine]
remaining activity at 0.1 µM [1]: 75.3% | remaining activity at 0.1 µM [2]: 10.7% | remaining activity at 0.1 µM [3]: 63.6% | remaining activity at 0.1 µM [4]: 57.7% | remaining activity at 0.1 µM [5]: 95.4% | remaining activity at 0.1 µM [6]: 101%

CN1CCN(Cc2ccc(-c3cnc4[nH]cc(-c5ccoc5)c4c3)cc2)CC1 [Compound 7w, 3-(Furan-3-yl)-5-(4-((4-methylpiperazin-1-yl)methyl)phenyl)-1H-pyrrolo[2,3-b]pyridine]
remaining activity at 0.1 µM [1]: 75.3% | remaining activity at 0.1 µM [2]: 61.4% | remaining activity at 0.1 µM [3]: 90.4% | remaining activity at 0.1 µM [4]: 62.4% | remaining activity at 0.1 µM [5]: 96% | remaining activity at 0.1 µM [6]: 94.3%

Source: US12227500B2, “Substituted pyrrolo[2,3-b]pyridines for suppressing toxic endoplasmic reticulum stress” (THE TRUSTEES OF COLUMBIA UNIVERSITY IN THE CITY OF NEW YORK, priority 2018, dated 2025)
